{"source": "patent US12115250B2", "about": "“Use of nanoparticles for treating respiratory infections associated with cystic fibrosis” (EVOQ NANO, INC., priority 2019, dated 2024)", "key": {"[1]": {"test_system": "E. coli ATCC #51813", "experiment": "Antibacterial efficacy test, Relative Light Unit (RLU) counts (ATP)", "format": "cell-based", "description": "The NIST nanoparticles are formed by a chemical reduction process that utilizes citrate as reducing and capping agent.\nRelative Light Unit (RLU) counts were recorded at 12 hours and 24 hours post treatment. RLU measurements were carried out using a Hygiena SystemSURE Plus V.2 SN067503 RLU meter with Hygenia AquaSnap TOTAL ATP Water Test Cat #U143 Lot #153019. Culturing media was Hardy Diagnostics Buffered Peptone Water Lot #118272. Samples were prepared with the nanoparticle treatments and then diluted with the media to provide the tested concentrations. The test organism (Microbiologics, E. coli, KwikStik, ATCC #51813, Ref #0791 K, Lot #791-1-6) was incubated in fresh Buffered Peptone Water growth media for 24 hours prior to exposure to the nanoparticle treatments."}, "[2]": {"experiment": "Efficacy test comparing Attostat Ag to tobramycin (colony reduction)", "format": "cell-based", "settings": "4 μg/mL Attostat Ag vs 20 μg/mL tobramycin", "description": "Efficacy tests similar to those of Examples 5 and 6 were performed to compare the efficacy of Attostat Ag to tobramycin. […]"}}, "data": [{"smiles": "O=[N+]([O-])[O-].[Ag+]", "note": "[AgNO3 Silver Nitrate, silver nitrate]", "values": [{"measurement": "RLU Counts at 12 Hours Post Exposure", "setting": "[1]; 0.25 ppm (mg/L)", "value": 80, "unit": "RLU"}, {"measurement": "RLU Counts at 24 Hours Post Exposure", "setting": "[1]; 0.25 ppm (mg/L)", "value": 25, "unit": "RLU"}, {"measurement": "RLU Counts at 12 Hours Post Exposure", "setting": "[1]; 0.5 ppm (mg/L)", "value": 75, "unit": "RLU"}, {"measurement": "RLU Counts at 24 Hours Post Exposure", "setting": "[1]; 0.5 ppm (mg/L)", "value": 46, "unit": "RLU"}, {"measurement": "RLU Counts at 12 Hours Post Exposure", "setting": "[1]; 1.0 ppm (mg/L)", "value": 84, "unit": "RLU"}, {"measurement": "RLU Counts at 24 Hours Post Exposure", "setting": "[1]; 1.0 ppm (mg/L)", "value": 30, "unit": "RLU"}]}, {"smiles": "NC[C@H]1O[C@H](O[C@H]2[C@H](O)[C@@H](O[C@H]3O[C@H](CO)[C@@H](O)[C@H](N)[C@H]3O)[C@H](N)C[C@@H]2N)[C@H](N)C[C@@H]1O", "note": "[tobramycin]", "values": [{"measurement": "colony reduction, comparison", "setting": "[2]", "value": "equal colony reduction"}]}]}
